From patent US20080234263A1, “Quinazoline Derivatives” (priority 2003, published 2008)

Assays:
EGFR tyrosine kinase = target: T1, EGFR tyrosine kinase (Homo sapiens, UniProt P00533); experiment: Protein tyrosine kinase phosphorylation assay, Test (a); type: biochemical; details: recombinant intracellular fragment of EGFR, ATP at Km concentration; read-out: IC50 (nM) Test (a) (Inhibition of EGFR tyrosine kinase protein phosphorylation)
T1 construct: Recombinant intracellular fragments of EGFR, erbB2 and erbB4; made in house; host or cells: baculovirus/Sf21 insect cells (cleared lysate used)
Experimental: Recombinant intracellular fragments of EGFR, erbB2 and erbB4 (accession numbers X00588, X03363 and L07868 respectively) were cloned and expressed in the baculovirus/Sf21 system. Lysates were prepared from these cells by treatment with ice-cold lysis buffer (20 mM N-2-hydroxyethylpiperizine-N′-2-ethanesulfonic acid (HEPES) pH7.5, 150 mM NaCl, 10% glycerol, 1% Triton X-100, 1.5 mM MgCl2, 1 mM ethylene glycol-bis(β-aminoethyl ether) N′,N′,N′,N′-tetraacetic acid (EGTA), plus protease inhibitors and then cleared by centrifugation.
Specifically, Maxisorb™ 96-well immunoplates were coated with synthetic peptide (0.2 μg of peptide in a 100 μl phosphate buffered saline (PBS) solution and incubated at 4° C. overnight).
The immobilised phospho-peptide product of the reaction was detected by immunological methods. Firstly, plates were incubated for 90 minutes at room temperature with anti-phosphotyrosine primary antibodies that were raised in the mouse (4G10 from Upstate Biotechnology). Following extensive washing, plates were treated with Horseradish Peroxidase (HRP) conjugated sheep anti-mouse secondary antibody (NXA931 from Amersham) for 60 minutes at room temperature.
Kinase inhibition for a given compound was expressed as an IC50 value. […] The range of phosphorylation was calculated from the positive (vehicle plus ATP) and negative (vehicle minus ATP) control values.

[1] = tested on: KB cells (human naso-pharangeal carcinoma cells); experiment: EGFR driven KB cell proliferation assay, Test (b); type: cell-based; details: 96 h, EGF 1 ng/ml, incubation for 4 days, MTT
Experimental: This assay measures the ability of a test compound to inhibit the proliferation of KB cells (human naso-pharangeal carcinoma obtained from the American Type Culture Collection (ATCC).
Following adhesion to the plate, the cells are treated with or without EGF (final concentration of 1 ng/ml) and with or without compound at a range of concentrations in dimethylsulfoxide (DMSO) (0.1% final) before incubation for 4 days. Following the incubation period, cell numbers were determined by addition of 50 μl of 3-(4,5-Dimethylthiazol-2-yl)-2,5-diphenyltetrazolium bromide ([…]) (stock 5 mg/ml) for 2 hours. MTT solution was then tipped off, the plate gently tapped dry and the cells dissolved upon the addition of 100 μl of DMSO.
Absorbance of the solubilised cells was read at 540 nm using a Molecular Devices ThermoMax microplate reader. Inhibition of proliferation was expressed as an IC50 value. […] The range of proliferation was calculated from the positive (vehicle plus EGF) and negative (vehicle minus EGF) control values.

T1 sequence (P00533 669-1210 limits assumed): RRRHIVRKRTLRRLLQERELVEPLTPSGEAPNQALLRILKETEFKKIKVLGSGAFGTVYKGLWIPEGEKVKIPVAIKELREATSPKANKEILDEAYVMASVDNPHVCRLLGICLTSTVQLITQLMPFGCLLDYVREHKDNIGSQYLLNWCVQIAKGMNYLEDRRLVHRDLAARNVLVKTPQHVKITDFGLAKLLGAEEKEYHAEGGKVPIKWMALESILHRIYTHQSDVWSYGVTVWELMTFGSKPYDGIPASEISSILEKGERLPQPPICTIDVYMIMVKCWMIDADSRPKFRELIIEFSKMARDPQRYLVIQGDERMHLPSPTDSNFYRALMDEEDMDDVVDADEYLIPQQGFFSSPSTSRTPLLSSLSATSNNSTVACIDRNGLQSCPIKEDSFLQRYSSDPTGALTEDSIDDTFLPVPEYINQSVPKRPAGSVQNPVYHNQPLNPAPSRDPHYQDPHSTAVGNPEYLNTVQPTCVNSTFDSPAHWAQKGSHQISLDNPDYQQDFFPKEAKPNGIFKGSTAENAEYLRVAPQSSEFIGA

Structure (SMILES)	IC50 (EGFR tyrosine kinase) [nM]	IC50 [1] [nM]
COc1cc2ncnc(Nc3ccc(F)c(Cl)c3)c2cc1CN1CCC[C@@H]1C(=O)NCC#N [Example 20, 1-({4-[(3-Chloro-4-fluorophenyl)amino]-7-methoxyquinazolin-6-yl}methyl)-N-(cyanomethyl)-D-prolinamide]	64	143
COc1cc2ncnc(Nc3cccc(Cl)c3F)c2cc1CN1CSC[C@H]1C(N)=O [Example 24, (4R)-3-({4-[(3-Chloro-2-fluorophenyl)amino]-7-methoxyquinazolin-6-yl}methyl)-1,3-thiazolidine-4-carboxamide]	20	50
COCCN1CCN(Cc2cc3c(Nc4cccc(Cl)c4F)ncnc3cc2OC)C(C(N)=O)C1 (stereo not drawn) [Example 37, 1-({4-[(3-Chloro-2-fluorophenyl)amino]-7-methoxyquinazolin-6-yl}methyl)-4-(2-methoxyethyl)piperazine-2-carboxamide]	67	160
